Source: patent US20250236654A1, “C-TYPE NATRIURETIC PEPTIDE ENGRAFTED ANTIBODIES” (Bayer Aktiengesellschaft, priority 2018, published 2025)
Where a SMILES comes first, the peptide text is derived from it. Bridges are numbered along the chain shown (N, C = ends). Where no end group is shown, it is not given here.

Key:
[1] = target: T1, insulin degrading enzyme (IDE) (Rattus norvegicus, UniProt P35559); experiment: Sensitivity towards proteolytic degradation by IDE (activity on receptor cell line after incubation); type: in vitro ADME; conditions: 4 hours, 37° C., 0.6 μg/ml IDE
T1 construct: purchased Merck 407241-50UG
T1 sequence (P35559 1-1019): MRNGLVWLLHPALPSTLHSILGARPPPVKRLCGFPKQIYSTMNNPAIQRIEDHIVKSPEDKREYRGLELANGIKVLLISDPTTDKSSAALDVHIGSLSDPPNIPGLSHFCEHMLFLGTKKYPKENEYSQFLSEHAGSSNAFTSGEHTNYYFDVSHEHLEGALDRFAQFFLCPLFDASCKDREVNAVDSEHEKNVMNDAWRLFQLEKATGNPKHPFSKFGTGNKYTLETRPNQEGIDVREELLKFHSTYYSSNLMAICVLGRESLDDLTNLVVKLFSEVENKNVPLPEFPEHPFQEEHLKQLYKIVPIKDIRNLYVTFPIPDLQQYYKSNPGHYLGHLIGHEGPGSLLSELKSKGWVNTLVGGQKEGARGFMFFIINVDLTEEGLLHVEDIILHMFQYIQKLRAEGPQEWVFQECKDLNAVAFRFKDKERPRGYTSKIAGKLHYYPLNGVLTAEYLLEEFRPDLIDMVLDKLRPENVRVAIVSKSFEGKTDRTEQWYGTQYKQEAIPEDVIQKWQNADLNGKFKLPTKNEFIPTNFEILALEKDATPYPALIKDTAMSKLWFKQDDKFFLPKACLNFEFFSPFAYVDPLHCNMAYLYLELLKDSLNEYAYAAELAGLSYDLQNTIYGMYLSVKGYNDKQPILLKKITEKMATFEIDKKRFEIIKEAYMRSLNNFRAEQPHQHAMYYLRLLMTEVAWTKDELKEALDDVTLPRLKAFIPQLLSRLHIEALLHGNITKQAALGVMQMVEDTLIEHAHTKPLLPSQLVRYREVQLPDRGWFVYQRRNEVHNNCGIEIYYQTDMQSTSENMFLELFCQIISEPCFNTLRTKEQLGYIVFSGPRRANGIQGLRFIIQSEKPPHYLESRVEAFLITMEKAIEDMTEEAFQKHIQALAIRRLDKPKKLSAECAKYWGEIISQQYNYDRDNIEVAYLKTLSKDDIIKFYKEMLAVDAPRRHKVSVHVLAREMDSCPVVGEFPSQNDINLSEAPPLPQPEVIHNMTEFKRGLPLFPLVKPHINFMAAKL

[2] = target: T2, rat BNP receptor (NPR-A) (Rattus norvegicus, UniProt P18910); experiment: Fluorescence-based rat BNP receptor (NPR-A) GCaMP6 reporter cell line
T2 construct: expressed in transfected cells; host or cells: CHO cell line stably expressing GCaMP6, co-transfected with CNGA2 and rat NPR-A
T2 sequence (P18910 29-1057): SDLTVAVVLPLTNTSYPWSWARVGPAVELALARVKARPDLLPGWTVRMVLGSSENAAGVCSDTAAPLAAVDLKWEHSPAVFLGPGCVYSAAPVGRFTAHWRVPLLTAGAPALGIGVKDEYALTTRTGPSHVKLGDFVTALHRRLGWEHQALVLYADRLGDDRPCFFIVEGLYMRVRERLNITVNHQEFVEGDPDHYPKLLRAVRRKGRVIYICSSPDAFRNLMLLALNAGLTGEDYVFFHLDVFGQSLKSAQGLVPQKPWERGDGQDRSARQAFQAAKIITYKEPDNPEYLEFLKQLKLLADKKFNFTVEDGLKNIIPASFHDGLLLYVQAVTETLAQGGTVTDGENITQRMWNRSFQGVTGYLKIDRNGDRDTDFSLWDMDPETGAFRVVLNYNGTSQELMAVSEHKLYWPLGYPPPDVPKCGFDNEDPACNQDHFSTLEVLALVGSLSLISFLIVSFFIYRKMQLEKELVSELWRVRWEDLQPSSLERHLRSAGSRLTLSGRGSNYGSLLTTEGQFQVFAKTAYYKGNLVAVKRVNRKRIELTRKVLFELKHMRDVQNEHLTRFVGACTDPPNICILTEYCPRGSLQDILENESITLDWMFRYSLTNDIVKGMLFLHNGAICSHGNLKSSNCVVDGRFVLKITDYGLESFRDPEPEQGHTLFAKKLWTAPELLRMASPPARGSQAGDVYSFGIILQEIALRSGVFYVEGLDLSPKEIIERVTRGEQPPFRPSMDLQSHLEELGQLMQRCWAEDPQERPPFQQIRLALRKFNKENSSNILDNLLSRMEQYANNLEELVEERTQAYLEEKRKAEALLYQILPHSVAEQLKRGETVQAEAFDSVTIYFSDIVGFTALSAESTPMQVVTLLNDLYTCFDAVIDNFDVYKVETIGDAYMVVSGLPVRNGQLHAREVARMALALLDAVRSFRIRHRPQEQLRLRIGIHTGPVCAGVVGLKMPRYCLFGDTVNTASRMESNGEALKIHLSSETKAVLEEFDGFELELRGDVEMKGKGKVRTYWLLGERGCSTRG
From the text: Activity data of BNP engrafted antibodies in NPR-A receptor cell line A luminescence-based rat BNP receptor (NPR-A) cell line was generated as described previously (Wunder et al. (2013), Eur J Pharmacol. 698: 131). Accordingly, a fluorescence-based rat BNP receptor (NPR-A) cell line was generated by co-transfecting a CHO cell line, stably expressing the fluorescent calcium sensor protein GCaMP6, with plasmid constructs encoding CNGA2 (cGMP biosensor) and rat NPR-A.
BNP receptor GCaMP6 cells were cultured for one day on black, clear-bottom 384-well microtiter plates (2500 cells/well). After removal of the cell culture medium reporter cells were loaded for 20 min with Tyrode (130 mM NaCl, 5 mM KCl, 2 mM CaCl2, 20 mM HEPES, 1 mM MgCl2, 4.8 mM NaHCO3 at pH 7.4) containing a black masking dye at 37° C. and 5% CO2. IBMX (0.2 mM) was used to prevent cGMP degradation by endogenous phosphodiesterases.
Fluorescence measurements (3 min, kinetic mode) were directly started upon agonist addition. Receptor ligands were added in Tyrode containing a black masking dye and 0.1% BSA. Measurements were done on a FLIPR Tetra®.

[3] = target: T3, neutral endopeptidase (NEP) (Homo sapiens, UniProt P08473); experiment: Sensitivity towards proteolytic degradation by NEP (activity on receptor cell line after incubation); type: in vitro ADME; conditions: 4 hours, 37° C., 0.6 μg/ml NEP
T3 construct: purchased R&D Systems 1182-ZNC
T3 sequence (P08473 whole entry): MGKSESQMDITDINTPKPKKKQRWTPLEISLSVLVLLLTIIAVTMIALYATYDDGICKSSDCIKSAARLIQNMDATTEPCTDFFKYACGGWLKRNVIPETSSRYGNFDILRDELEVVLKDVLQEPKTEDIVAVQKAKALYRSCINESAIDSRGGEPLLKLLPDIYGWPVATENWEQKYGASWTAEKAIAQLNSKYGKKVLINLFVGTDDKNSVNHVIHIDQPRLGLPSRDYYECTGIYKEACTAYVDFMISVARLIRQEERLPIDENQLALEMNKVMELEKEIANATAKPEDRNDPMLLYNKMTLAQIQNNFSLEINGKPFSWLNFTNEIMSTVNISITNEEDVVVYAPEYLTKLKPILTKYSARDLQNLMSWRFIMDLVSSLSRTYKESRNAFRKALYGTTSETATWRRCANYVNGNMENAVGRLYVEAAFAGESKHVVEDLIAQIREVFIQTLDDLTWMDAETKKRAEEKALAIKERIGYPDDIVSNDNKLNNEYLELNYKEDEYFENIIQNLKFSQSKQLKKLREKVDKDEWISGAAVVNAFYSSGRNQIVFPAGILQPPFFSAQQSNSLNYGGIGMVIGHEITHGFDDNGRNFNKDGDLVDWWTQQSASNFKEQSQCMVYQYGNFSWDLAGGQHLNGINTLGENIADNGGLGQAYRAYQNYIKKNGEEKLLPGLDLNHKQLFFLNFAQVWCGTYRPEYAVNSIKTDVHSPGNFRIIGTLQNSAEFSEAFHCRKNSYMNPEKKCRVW

[4] = test system: PE-contracted aortic rings; experiment: Vasorelaxation of isolated rat aortic rings contracted by phenylephrine
Description: All experiments were conducted in accordance with institutional guidelines and approved by the local committee on animal experiments. Male Sprague-Dawley rats (weighing 250-300 g) were anesthetized with pentobarbital sodium (40 mg/kg i.p.), killed by decapitation, and exsanguinated. The thoracic aorta was excised and placed in ice-cold Krebs buffer of the following composition: 130 mM NaCl, 14.9 mM NaHCO3, 5.5 mM dextrose, 4.7 mM KCl, 1.18 mM KH2PO4, 1.17 mM MgSO47H2O, and 1.6 mM CaCl22H2O. The vessel was pinned in a Sylgard Petri dish filled with chilled Krebs' solution, cleaned of fat and connective tissue, and cut into ring segments of approximately 3 to 4 mm in length. […] Changes in isometric force were recorded using a PowerLab data acquisition system (software Lab Chart 7.0)
After the equilibration period, aortic rings were challenged with 80 mM KCl to check tissue viability. Next, the endothelial integrity of the preparations was determined by verifying the responsiveness to acetylcholine (ACh, 1 μM) in vessels pre-contracted with Phenylephrine (PE, 1 μM). After wash-out and a period of equilibration, Phenylephrine (PE, 1 μM) was used to induce contraction, thereafter natriuretic peptides and natriuretic peptide engrafted IgGs were evaluated for vasorelaxation.

[5] = test system: spontaneously hypertensive rats; experiment: Blood pressure by radiotelemetry in conscious spontaneously hypertensive rats; type: in vivo, rat; set-up: drop in mean arterial blood pressure (MAP): dose or concentration left out as unconfirmed; conditions: intraperitoneal
Description: Female spontaneously hypertensive rats (SHR/N Crl BR, Charles River) with a body weight of 210-300 g were used for these studies. All animals were housed in individual cages at 22-24° C. ambient temperature and maintained on a 12-hour light/dark cycle with free access to standard laboratory rat chow and water ad libitum. Telemeter (HD-10, DSI) implantation was performed a minimum of 14 days before animals were used for blood pressure measurements. Surgery was performed under aseptic conditions. After shaving the abdominal wall, a midline abdominal incision was made, and the fluid-filled sensor catheter was inserted upstream into the exposed descending aorta between the iliac bifurcation and the renal arteries. According to the DSI guidelines the tip of the telemetric catheter was located caudal to the renal arteries and secured by tissue adhesive. The transmitter body was affixed to the inner peritoneal wall before closure of the abdomen. […] Data are expressed as % of basal values±SEM of at least 4 animals per group. The basal value for each animal was calculated as the average of the values measured in two hours prior to substance application (7:00-9:00 AM). Data are then expressed as averages every half hour, starting 15 minutes post application. […]

Molecule | sensitivity/resistance to proteolytic degradation by IDE [1] | EC50 [2] | sensitivity/resistance to proteolytic degradation by NEP [3] | vasodilation in PE-contracted aortic rings [4] | Potency (log EC50 values), vasodilation ([4]; endothelium-intact rat aortic rings contracted by phenylephrine (1 μM)) | drop in mean arterial blood pressure (MAP) [5] | duration of effect on MAP ([5]; 500 g dose)
CC[C@H](C)[C@@H]1NC(=O)[C@H](CCCNC(=N)N)NC(=O)[C@H](CC(=O)O)NC(=O)[C@H](CCSC)NC(=O)[C@H](CCCNC(=N)N)NC(=O)CNC(=O)CNC(=O)[C@H](Cc2ccccc2)NC(=O)[C@@H](NC(=O)[C@H](CO)NC(=O)[C@H](CO)NC(=O)[C@H](CCCNC(=N)N)NC(=O)[C@H](CCCNC(=N)N)NC(=O)[C@H](CC(C)C)NC(=O)[C@@H](N)CO)CSSC[C@@H](C(=O)N[C@@H](CC(N)=O)C(=O)N[C@@H](CO)C(=O)N[C@@H](Cc2ccccc2)C(=O)N[C@@H](CCCNC(=N)N)C(=O)N[C@@H](Cc2ccc(O)cc2)C(=O)O)NC(=O)CNC(=O)[C@H](CC(C)C)NC(=O)CNC(=O)[C@H](CO)NC(=O)[C@H](CCC(N)=O)NC(=O)[C@H](C)NC(=O)CNC1=O [ANP, reference compound] | high sensitivity |  |  |  |  |  | 
CC[C@H](C)[C@@H]1NC(=O)[C@H](CCCNC(=N)N)NC(=O)[C@H](CC(=O)O)NC(=O)[C@H]([C@@H](C)CC)NC(=O)[C@H](CCCCN)NC(=O)[C@H](CCC(N)=O)NC(=O)CNC(=O)[C@H](Cc2ccccc2)NC(=O)[C@@H](NC(=O)[C@H](CO)NC(=O)[C@H](CO)NC(=O)[C@H](CO)NC(=O)[C@H](Cc2c[nH]cn2)NC(=O)[C@H](C)NC(=O)[C@H](CCSC)NC(=O)[C@H](CCCCN)NC(=O)[C@H](CO)NC(=O)[C@@H](N)CC(N)=O)CSSC[C@@H](C(=O)N[C@@H](CC(=O)O)C(=O)NCC(=O)N[C@@H](CC(C)C)C(=O)N[C@@H](CCCNC(=N)N)C(=O)N[C@@H](CC(C)C)C(=O)N[C@@H](Cc2ccccc2)C(=O)O)NC(=O)CNC(=O)[C@H](CC(C)C)NC(=O)[C@H](CCCNC(=N)N)NC(=O)[C@H](CO)NC(=O)[C@H](C(C)C)NC(=O)[C@H](C)NC(=O)CNC1=O [BNP, reference compound] (H-NSKMAHSSSCFGQKIDRIGAVSRLGCDGLRLF-OH; disulfide 10-26; N-terminus and C-terminus assumed) | high sensitivity | 2.9 nM | high sensitivity |  |  |  | 
ANP peptide: Rat ANP peptide (ADH-GM-10057T, Santai Labs) used as a reference (SLRRSSCFGGRIDRIGAQSGLGCNSFRY; disulfide 7-23; UniProt P01161 123-150, looked up) [reference compound] |  |  |  | dose-dependent vasodilation | −7.4 | approximately 25% | 6 to 8 h
